Our source for the EC50 values is patent US8722929B2, “N-[2-amino-4-(phenylmethoxy)phenyl] amides and related compounds as potassium channel modulators” (Valeant Pharmaceuticals International, priority 2006, dated 2014).

pEC50: −log10 of the molar value. Where two headings read alike, the source gives them in different places.

The target of the test is T1, KCNQ 2/3 (Rattus norvegicus, UniProt O88943+O88944).
T1 construct: endogenous in cells; host or cells: PC-12 cells differentiated with NGF
The test can be described thus: KCNQ 2/3 activator assay by rubidium (Rb+) efflux from NGF-differentiated PC-12 cells. It counts as cell-based. The protocol: Compounds of the following formula were assayed as KCNQ 2/3 activators by measuring rhubidium release.
PC-12 cells were grown at 37° C. and 5% CO2 in DMEM/F12 Medium supplemented with 10% horse serum, 5% fetal bovine serum, 2 mM glutamine, 100 U/ml penicillin, 100 U/ml streptomycin. They were plated in poly-D-lysine-coated 96-well cell culture microplates at a density of 40,000 cells/well and differentiated with 100 ng/ml NGF-7s for 2-5 days. For the assay, the medium was aspirated and the cells were washed once with 0.2 ml in wash buffer (25 mM Hepes, pH 7.4, 150 mM NaCl, 1 mM MgCl2, 0.8 mM NaH2PO4, 2 mM CaCl2). The cells were then loaded with 0.2 ml Rb^+ loading buffer (wash buffer plus 5.4 mM […], 5 mM glucose) and incubated at 37° C. for 2 h. Attached cells were quickly washed three times with buffer (same as Rb^+ loading buffer, but containing 5.4 mM KCl instead of RbCl) to remove extracellular Rb^+. Immediately following the wash, 0.2 ml of depolarization buffer (wash buffer plus 15 mM KCl) with or without compounds was added to the cells to activate efflux of potassium ion channels. After incubation for 10 min at room temperature, the supernatant was carefully removed and collected. Cells were lysed by the addition of 0.2 ml of lysis buffer (depolarization buffer plus 0.1% Triton X-100) and the cell lysates were also collected. If collected samples were not immediately analyzed for Rb^+ contents by atomic absorption spectroscopy (see below), they were stored at 4° C. without any negative effects on subsequent Rb^+ analysis.
The concentration of Rb^+ in the supernatants (Rb^+ sup) and cell lysates (Rb^+Lys) was quantified using an ICR8000 flame atomic absorption spectrometer (Aurora Biomed Inc., Vancouver, B.C.) under conditions defined by the manufacturer. One 0.05 ml samples were processed automatically from microtiter plates by dilution with an equal volume of Rb^+ sample analysis buffer and injection into an air-acetylene flame. The amount of Rb^+ in the sample was measured by absorption at 780 nm using a hollow cathode lamp as light source and a PMT detector. A calibration curve covering the range 0-5 mg/L Rb^+ in sample analysis buffer was generated with each set of plates. The percent Rb^+ efflux (F) was defined by F=[Rb^+Sup/(Rb^+Sup+Rb^+Lys)]×100%
The effect (E) of a compound was defined by: E=[(Fc−Fb)/(Fs−Fb)]×100% where the Fc is the efflux in the presence of compound in depolarization buffer, Fb is the efflux in basal buffer, and Fs is the efflux in depolarization buffer, and Fc is the efflux in the presence of compound in depolarization buffer. The effect (E) and compound concentration relationship was plotted to calculate an EC50 value, a compound's concentration for 50% of maximal Rb^+ efflux.

Where [1] appears, read: Rb+ efflux, PC-12 cells, depolarization buffer 15 mM KCl, 10 min, compounds of formula A, read-out: EC50.
[2] abbreviates: Rb+ efflux, PC-12 cells, depolarization buffer 15 mM KCl, 10 min, compounds of formula B, read-out: EC50.

With `CC(C)(C)CC(=O)Nc1ccc(OCc2ccc(F)cc2)cc1N` [I, N-(2-amino-4-(4-fluorobenzyloxy)phenyl)-3,3-dimethylbutanamide], the pEC50 under setting [1] was more than 5.70.
The same measure, in the same setting: as for `CC(C)(C)CC(=O)Nc1ccc(OCc2ccc(F)c(F)c2)cc1N` [II, N-(2-amino-4-(3,4-difluorobenzyloxy)phenyl)-3,3-dimethylbutanamide], the figure is more than 5.70.
The same measure, in the same setting: as for `CC(C)(C)CC(=O)Nc1ccc(OCc2ccc(Cl)s2)cc1N` [III, N-(2-amino-4-((5-chlorothiophen-2-yl)methoxy)phenyl)-3,3-dimethylbutanamide], the figure is more than 5.70.
On to `COC(=O)Nc1ccc(OCc2ccc(F)cc2)cc1N` [V, Methyl 2-amino-4-(4-fluorobenzyloxy)phenylcarbamate], for which, under setting [2], the negative logarithm of the EC50 (pEC50) is more than 4.82.
Take `CCOC(=O)Nc1ccc(NCc2ccc(F)cc2)nc1N` [flupirtine]: the negative logarithm of the EC50 (pEC50) reads like this: under setting [1], more than 4.82; under setting [2], more than 4.82.
`CCOC(=O)Nc1ccc(NCc2ccc(F)cc2)cc1N` [retigabine, N-[2-amino-4-(4-fluorobenzylamino)phenyl]carbamic acid, ethyl ester] showed a pEC50 of more than 5.70. Moreover, the pEC50 (Rb+ efflux, PC-12 cells, depolarization buffer 15 mM KCl, 10 min, compounds of formula B) was more than 5.70.
